The source of these data is US9623262B2, “Methods and systems for determining the distribution of radiation dose and response” (priority 2013, dated 2017).

The subject of series [1] is V79 cells. Kind of series: Clonogenic survival after combined treatment with 210Po-citrate and drug (cocktails). The series is classed as cell-based, Chinese hamster. The conditions noted are these: for dose dependence of the enhancement of α-particle radiotoxicity: 0.63 μM daunomycin or 2.50 μM doxorubicin with graded 210Po-citrate; for effect of drug on radiotoxicity of 210Po-citrate: concomitant treatment, survival corrected for drug toxicity. The source says:
To evaluate cytotoxicity of combined treatment of V79 cells with ^210Po-citrate and daunomycin, or ^210Po-citrate and doxorubicin, the surviving fraction of clonogens was plotted as a function of mean cellular uptake of ^210Po (FIG. 9) and as a function of mean absorbed dose to the cell nucleus. When cells were only treated with ^210Po-citrate, the survival curve can be described by a 1-component exponential function. When cells were concomitantly treated with a single drug concentration and varying amounts of ^210Po-citrate, the dose-response curves followed a 2-component exponential function. The data corresponding to the combined treatments were then corrected for drug toxicity, by dividing the surviving fraction for each datum point by the surviving fraction for drug alone (SF=0.10), and replotted in FIG. 9. Both of the corrected cell survival curves emerged below those obtained for ^210Po-citrate alone.

Series [2] has as its system V79 cells. Briefly: Clonogenic survival assay after single-agent treatment.
Method: The surviving fraction SF of cells exposed to the agent was assessed with a clonogenic survival assay and plotted as a function of several different variables including extracellular concentration, <I>net, absorbed dose (Gy), and mean cellular activity (mBq/cell). […] Analogous to the cellular activity and absorbed dose required to achieve 37% survival, a37 and D37, the net mean lethal fluorescence intensity of the drug required to achieve 37% survival, <I>net,37, can be defined similarly and obtained from plots of SF versus <I>net.
A is the intracellular activity of ^210Po-citrate, absorbed dose to the cell nucleus, or drug concentration. Least squares fits of the survival data to this function were performed. The variable b is a fitted parameter.
Cells grown in 225-cm^2 flasks were trypsinized (0.25% trypsin, Gibco, catalog no. 25200-056), and MEMB was added to obtain 2×10^6 cells/mL. Aliquots of 1 mL were placed in Falcon 17×100 mm polypropylene tubes (BD, catalog no. 352018) and placed on a rocker-roller (Thermo Fisher, Fair Lawn, N.J.) for 3 hours at 37° C. with 5% CO2 and 95% air. After this conditioning period, cells were treated with drug or radiochemical. Cell cultures were exposed to radiochemical and drugs for 0.5 and 2.5 h, respectively.
One milliliter of MEMB containing ^210Po-citrate was added to the 1 mL of conditioned V79 cultures (2×10^6 cells/mL), to arrive at a concentration of 0-250 kBq/mL (pH 6.9-7.0). After incubating for 30 min, the cells were washed 2× with MEMB, resuspended in 2 mL of MEMB, and incubated on a rocker-roller for 2.5 h to simulate concomitant drug exposure. The cells were resuspended in a 5 mL of MEMB, passed 5× through a needle, and counted with a Beckman Coulter Model Z2 (Brea, Calif.). Aliquots (500 μL) of the cell suspension were transferred to vials, mixed with 5 mL Ecolume (MP Biomedical, Solon, Ohio, catalog no. 882470), and counted with a Beckman Coulter LS6500, and the mean activity per cell was determined (efficiency, 50% as per prior studies). Aliquots of about 5×10^5 cells were counted in triplicate for ^210Po activity and the cpm ranged from 10^3-10^5. The triplicate measurements kept statistical variations to a minimum. Each sample was serially diluted and plated in Falcon 60×15 mm tissue culture dishes for colony formation. Cultures were incubated for 7 days, and the colonies were fixed in 95% ethanol, stained with 0.01% Amido Black, washed in tap-water, air-dried, and counted.
After conditioning, the cell cultures were treated with daunomycin (Sigma, catalog no. D8809) or doxorubicin (Sigma, catalog no. 44583) to a final concentration of 0-10 μmol/L in MEMB. The tubes were returned to the rocker-roller for 2.5 h. The cells were then processed for colony formation as described above.

With `COc1cccc2c1C(=O)c1c(O)c3c(c(O)c1C2=O)C[C@@](O)(C(C)=O)C[C@@H]3O[C@H]1C[C@H](N)[C@H](O)[C@H](C)O1` [daunomycin], in series [1], the “dose dependence of the enhancement of α-particle radiotoxicity” value is reported as “independent of radiation absorbed dose beyond about 0.5 Gy” and the “effect of drug on radiotoxicity of 210Po-citrate” value is on record as “enhance the radiotoxicity of α-particles”. The “relative cytotoxicity based on extracellular drug concentration” value in series [2] (V79 cell cultures) was “more cytotoxic than doxorubicin”. For the same compound, in series [2] (low extracellular concentrations, V79 cells), the “lethality of daunomycin relative to doxorubicin” value is approximately 5 ×.

Turning to `COc1cccc2c1C(=O)c1c(O)c3c(c(O)c1C2=O)C[C@@](O)(C(=O)CO)C[C@@H]3O[C@H]1C[C@H](N)[C@H](O)[C@H](C)O1` [doxorubicin], in series [1], the “dose dependence of the enhancement of α-particle radiotoxicity” value is recorded as “dose-dependent increase” and the “effect of drug on radiotoxicity of 210Po-citrate” value is reported as “enhance the radiotoxicity of α-particles”.

Consider ^210Po-citrate, for which the “cellular uptake of 210Po at the mean lethal dose” value in series [2] (37% survival) amounted to 0.21 mBq/cell. Also, the “atoms of 210Po per cell at the mean lethal dose” value in series [2] (corresponds to 0.21 mBq/cell) is given as “about 3600 atoms”.
